Laboratory results reported in patent US20110257256A1, “CANNABINOIDS FOR USE IN TREATING OR […] […] […]” (priority 2008, published 2011).
Converted amounts (≈) assume the structure as drawn. Like-named read-outs stand apart in the source and are kept apart here.

Columns and labels:
neopterin formation = assay: Neopterin formation in PBMC supernatants (ELISA); format: cell-based; conditions: Homo sapiens
[1] = system: indoleamine 2,3-dioxygenase (IDO); assay: IDO activity (kyn/trp by HPLC) in THP-1 cells; format: cell-based; conditions: for IC50: Homo sapiens, LPS (1 μg/ml) stimulated THP-1 cells, 48 h, read-out: IC50 decrease of kyn/trp (LPS-induced tryptophan degradation); for effect on tryptophan metabolism (kyn/trp): unstimulated THP-1 cells, CBD effect at the highest concentration tested
[2] = system: human peripheral blood mononuclear cells (PBMC); assay: Cell viability/proliferation of PBMC by MTT-test and trypan blue exclusion; format: cell-based; conditions: 48 h, read-out: IC50 number of viable cells
Experimental: PBMC were isolated from whole blood obtained from healthy donors of whom written informed consent was obtained that their donated blood might be used for scientific purposes in case when it was not selected for transfusion. Separation of blood cells was performed using density centrifugation (Lymphoprep, Nycomed Pharma AS, Oslo, Norway). After isolation, PBMC were washed three times in phosphate buffered saline containing 0.2% 0.5 mM EDTA. Cells were maintained in RPMI 1640 supplemented with 10% heat-inactivated fetal calf serum (Biochrom, Berlin, Germany), 2 mM glutamine (Serva, Heidelberg, Germany) and 0.05 mg/ml gentamicin (Bio-Whittaker, Walkersville, Md.) in a humidified atmosphere containing 5% CO2 for 48 h. This procedure was observed earlier to yield best reproducible results when applied for testing of anti-inflammatory effects of compounds or drugs (Winkler et al., 2007, Int. Arch. Allergy Immunol. 142, 127-132). For each of the four experiments run in duplicates, PBMC were freshly prepared.
Consequently, the cells were stimulated or not with 10 μg/ml PHA or Con A for 48 h.
(§1) After incubation of PBMC with mitogens Con A or PHA (each 10 μg/ml) or treatment of THP-1 cells with LPS (1 μg/ml ), with or without cannabinoids for 48 h, cell viability was measured by MTT-test (3-[4,5-[…]]-2,5 diphenyl tetrazolium bromide) and by trypan blue exclusion method in three experiments performed in triplicates. No toxicity could be observed with solvent (0.1% EtOH; data not shown). IC50 were calculated by the CalcuSyn software from Biosoft, Cambridge, UK, using the original concept of Chou and Talalay (Chou and Talalay, 1984, Adv. Enzyme Regul. 22, 27-55).

IDO mRNA = IDO mRNA expression in PHA stimulated PBMC (real-time RT-PCR); format: cell-based, human; conditions: 5 μg/ml (highest concentration tested), PHA 5 μg/ml, 6 h
Experimental: (§2) For quantification of IDO and IFN-γ gene expression, RNA was extracted from PBMC using Trizol reagent (Invitrogen, Vienna, Austria) and reverse-transcribed using Superscript II reverse transcriptase (Invitrogen). Thirty cyles of PCR were performed using Sure Start Taq polymerase (Stratagene, La Jolla, Calif.). Levels of mRNA were quantified by real-time PCR with the ABI/PRISM 7700 sequence detection system (PE Applied Biosystems, Foster City, Calif.). 18sRNA was used as an invariant endogenous control. Specific primers and an internal fluorescent TaqMan probe were designed as follows: human 18sRNA primers, 5′-[…]-3′ (SEQ ID NO:1) and 5′-[…]-3′ (SEQ ID NO:2); 18sRNA probe, 5′-FAM-[…]-TAMRA-3′ (SEQ ID NO:3); human IDO primers, 5′-[…]-3′ (SEQ ID NO:4) and 5′-[…]-3′ (SEQ ID NO:5); IDO probe, 5′-FAM-[…]-TAMRA-3′ (SEQ ID NO:6); human IFN-γ primers, 5′[…]-3′ (SEQ ID NO:7), 5′-[…]-3′ (SEQ ID NO:8); IFN-γ probe, 5′-FAM-[…]-TAMRA-3′ (SEQ ID NO:9). Relative mRNA expression was calculated by dividing the relative quantity of each PCR product by the relative quantity of 18sRNA in each sample.

[3] = system: indoleamine 2,3-dioxygenase (IDO); assay: IDO activity (kyn/trp by HPLC) in PBMC supernatants; format: cell-based, human; conditions: for IC50: Homo sapiens, PBMC; for effect of low doses on activity of the IDO enzyme: low doses 0.01-0.1 μg/ml, mitogen-stimulated PBMC
IFN-γ mRNA = IFN-γ mRNA expression in PHA stimulated PBMC (real-time RT-PCR); format: cell-based, human; conditions: 5 μg/ml (highest concentration tested), PHA 5 μg/ml, 6 h
Experimental: as §2

[4] = system: Myelomonocytic THP-1 cells; assay: Cell viability of THP-1 cells by MTT-test and trypan blue exclusion; format: cell-based; conditions: 0.1-10 μg/ml, unstimulated or LPS (1 μg/ml) stimulated THP-1 cells, 48 h
Experimental: Myelomonocytic THP-1 cells were obtained from European Collection of Cell Cultures (ECACC). […] Afterwards, cells were stimulated or not with 1 μg/ml LPS for 48 h.
as §1

CB2 receptors = CB2 receptors (Homo sapiens, UniProt P34972); conditions: reported; cited from earlier work
CB2 receptors, sequence (P34972 whole entry): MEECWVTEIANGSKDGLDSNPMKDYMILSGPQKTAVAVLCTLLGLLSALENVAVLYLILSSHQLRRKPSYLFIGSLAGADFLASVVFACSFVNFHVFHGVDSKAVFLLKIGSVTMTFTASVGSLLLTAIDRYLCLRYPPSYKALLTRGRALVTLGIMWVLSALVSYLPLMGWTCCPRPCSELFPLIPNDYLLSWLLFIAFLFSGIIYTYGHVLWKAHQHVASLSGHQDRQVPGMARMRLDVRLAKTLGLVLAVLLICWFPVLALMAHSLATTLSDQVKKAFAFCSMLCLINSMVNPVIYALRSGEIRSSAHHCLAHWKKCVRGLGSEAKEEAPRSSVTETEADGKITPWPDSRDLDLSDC

CB1/CB2 = conditions: reported; cited from earlier work
[5] = 48 h, Con A-stimulated PBMC (10 μg/ml), 48 h, read-out: IC50 mitogen-induced neopterin production
[6] = 48 h, PHA-stimulated PBMC (10 μg/ml), 48 h, read-out: IC50 mitogen-induced neopterin production
[7] = unstimulated PBMC, read-out: IC50 release of neopterin
[8] = Con A-stimulated PBMC (10 μg/ml)
[9] = unstimulated PBMC, 0.01-20 μg/ml
[10] = 48 h, Con A-stimulated PBMC (10 μg/ml), 48 h, read-out: IC50 mitogen-induced IDO activity (kyn/trp)
[11] = 48 h, PHA-stimulated PBMC (10 μg/ml), 48 h, read-out: IC50 mitogen-induced IDO activity (kyn/trp)
[12] = unstimulated PBMC, 0.01-10 μg/ml, read-out: IC50 decrease of kyn/trp

With `CCCCCc1cc(O)c2c(c1)OC(C)(C)[C@@H]1CCC(C)=C[C@@H]21` [THC, (6aR,10aR)-6,6,9-Trimethyl-3-pentyl-6a, 7,8,10a-tetrahydro-6H-benzo[c]chromen-1-ol] as the compound, how does the IC50 (neopterin formation; [5]) read?
Its IC50 is 6.7 µg/mL (≈ 21.3 µM).

And the IC50 (neopterin formation; [6])?
The IC50 was 5.3 µg/mL (≈ 16.9 µM).

What about the IC50 (neopterin formation; [7]) of the same compound?
Its IC50 is 16.7 µg/mL (≈ 53.1 µM).

What about the IC50 [1] of the same compound?
The IC50 was 0.6 µg/mL (≈ 1.91 µM).

What about the “effect on tryptophan metabolism (kyn/trp)” value [1] of the same compound?
Its value is “did not influence tryptophan metabolism”.

What about the IC50 [2, 8] of the same compound?
Its IC50 is 17.5 µg/mL (≈ 55.6 µM).

And the IC50 ([2]; PHA-stimulated PBMC (10 μg/ml))?
Its IC50 is 15.2 µg/mL (≈ 48.3 µM).

What about the IC50 [2, 9] of the same compound?
The IC50 was 14.5 µg/mL (≈ 46.1 µM).

What about the “inhibition of mitogen-stimulated expression of IDO mRNA” value (IDO mRNA) of the same compound?
Its value is “almost completely, inhibit”.

And the IC50 [3, 10]?
Its IC50 is 4.2 µg/mL (≈ 13.4 µM).

What about the IC50 [3, 11] of the same compound?
The IC50 was 5.5 µg/mL (≈ 17.5 µM).

What about the IC50 [3, 12] of the same compound?
The IC50 was 2.6 µg/mL (≈ 8.27 µM).

What about the “effect of low doses on activity of the IDO enzyme” value [3] of the same compound?
Its value is “modest but significant increase”.

And the “inhibition of mitogen-stimulated expression of IFN-γ mRNA” value (IFN-γ mRNA)?
Its value is “almost completely, inhibit”.

What about the “influence on viability of THP-1 cells” value [4] of the same compound?
The value was “did not show any influence”.

With `C=C(C)[C@@H]1CCC(C)=C[C@H]1c1c(O)cc(CCCCC)cc1O` [CBD, 2-[(1R,6R)-3-methyl-6-prop-1-en-2-yl-1-cyclohex-2-enyl]-5-pentylbenzene-1,3-diol] as the compound, how does the affinity (CB2 receptors) read?
Its affinity is “micromolar range”.

And the IC50 (neopterin formation; [5])?
Its IC50 is 3.1 µg/mL (≈ 9.86 µM).

And the IC50 (neopterin formation; [6])?
The IC50 was 3.7 µg/mL (≈ 11.8 µM).

And the IC50 (neopterin formation; [7])?
Its IC50 is 8.2 µg/mL (≈ 26.1 µM).

What about the IC50 [1] of the same compound?
The IC50 was 0.3 µg/mL (≈ 0.954 µM).

And the “effect on tryptophan metabolism (kyn/trp)” value [1]?
The value was “faint suppression of tryptophan degradation”.

And the IC50 [2, 8]?
The IC50 was 8.6 µg/mL (≈ 27.3 µM).

What about the IC50 ([2]; PHA-stimulated PBMC (10 μg/ml)) of the same compound?
Its IC50 is 8.5 µg/mL (≈ 27 µM).

What about the IC50 [2, 9] of the same compound?
Its IC50 is 7.3 µg/mL (≈ 23.2 µM).

What about the “inhibition of mitogen-stimulated expression of IDO mRNA” value (IDO mRNA) of the same compound?
Its value is “almost completely, inhibit”.

What about the IC50 [3, 10] of the same compound?
The IC50 was 2.8 µg/mL (≈ 8.9 µM).

And the IC50 [3, 11]?
Its IC50 is 1.4 µg/mL (≈ 4.45 µM).

What about the IC50 [3, 12] of the same compound?
Its IC50 is 1.2 µg/mL (≈ 3.82 µM).

What about the “effect of low doses on activity of the IDO enzyme” value [3] of the same compound?
Its value is “modest but significant increase”.

And the “inhibition of mitogen-stimulated expression of IFN-γ mRNA” value (IFN-γ mRNA)?
Its value is “almost completely, inhibit”.

And the “KB antagonism of CB1/CB2 agonists” value (CB1/CB2)?
The value was “low nanomolar range”.

What about the “influence on viability of THP-1 cells” value [4] of the same compound?
Its value is “did not show any influence”.
